# Biological target: HCV RNA-dependent RNA polymerase (NS5B) (Hepatitis C virus genotype 1b (isolate BK) (HCV), UniProt P26663)
# Assay: RNA-Dependent RNA HCV NS5B (polymerase) Assay and IC50 Determination
# Assay type: biochemical
# Conditions: purified HCV NS5B polymerase, polyA:U16 substrate, 32P-UTP incorporation; read-out: IC50
# Procedure: RNA-Dependent RNA HCV NS5B (polymerase) Assay and IC50 Determination.
# The reaction mixtures consisted of 50 mM Hepes-KOH, pH 7.5, 5 mM MgCl2, 5 mM DTT, 2% glycerol, 0.01% Triton® X-100, 0.5 uM polyA:U16 substrate, purified HCV RNA-dependent RNA polymerase, 10 μM UTP, and ^32P-UTP (Perkin Elmer). The reaction mixtures incubated at 30° C. for 60 minutes, and then filtered through Zeta probe membrane (BioRad). The filter was washed with 5×SSC (75 mM sodium citrate, pH 7 and 750 mM NaCl), and the radiolabeled RNA products were quantitated by microbeta (Perkin Elmer). For IC50 determination, different concentrations of inhibitors were added to the polymerase reaction mixtures, and incubated at 37° C. for 60 minutes. IC50 values were determined using GraFit (Erithaus software).
# Table 1 presents IC50 data obtained using the biochemical assay to test representative compounds. Data are presented as follows: “+++” means <0.1 μM; “++” means ≥0.1 μM but <1.0 μM; “+” means ≥1.0 μM.
# Sequence of HCV RNA-dependent RNA polymerase (NS5B) (P26663 2420-3010): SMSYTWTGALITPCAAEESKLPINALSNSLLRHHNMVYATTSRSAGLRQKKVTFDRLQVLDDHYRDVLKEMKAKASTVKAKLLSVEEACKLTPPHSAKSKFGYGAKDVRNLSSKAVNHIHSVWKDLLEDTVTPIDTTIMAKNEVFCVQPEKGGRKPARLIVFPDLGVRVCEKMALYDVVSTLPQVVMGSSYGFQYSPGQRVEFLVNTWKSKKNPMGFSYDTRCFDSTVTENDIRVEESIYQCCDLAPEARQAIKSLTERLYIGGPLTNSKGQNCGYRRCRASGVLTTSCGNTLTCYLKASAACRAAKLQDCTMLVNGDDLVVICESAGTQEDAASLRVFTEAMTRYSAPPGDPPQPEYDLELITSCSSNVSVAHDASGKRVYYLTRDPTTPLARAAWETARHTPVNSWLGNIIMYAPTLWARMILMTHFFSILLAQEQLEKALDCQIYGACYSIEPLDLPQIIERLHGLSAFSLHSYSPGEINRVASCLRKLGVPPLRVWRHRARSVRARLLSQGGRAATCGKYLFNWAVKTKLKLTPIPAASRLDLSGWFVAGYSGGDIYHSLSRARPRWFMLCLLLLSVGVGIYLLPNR
row,Compound,IC50
1,"CNC(=O)c1c(-c2ccc(F)cc2)oc2cc(N(CCOCCOCCCCc3cccc(C(=O)CC(=O)C(=O)O)c3)S(C)(=O)=O)c(C3CC3)cc12 [Compound 30-12, 4-(3-{4-[2-(2-{[5-Cyclopropyl-2-(4-fluoro-phenyl)-3-methylcarbamoyl-benzofuran-6-yl]-methanesulfonyl-amino}-ethoxy)-ethoxy]-butyl}-phenyl)-2,4-dioxo-butyric acid]",> 1 µM
2,"CNC(=O)c1c(-c2ccc(F)cc2)oc2cc(N(CCOCCOCc3ccc(F)c(C(=O)NO)c3)S(C)(=O)=O)c(C3CC3)cc12 [Compound 17A-8B, 5-Cyclopropyl-6-({2-[2-(4-fluoro-3-hydroxycarbamoyl-benzyloxy)-ethoxy]-ethyl}-methanesulfonyl-amino)-2-(4-fluoro-phenyl)-benzofuran-3-carboxylic Acid Methylamide]",> 1 µM
3,"CNC(=O)c1c(-c2ccc(F)cc2)oc2cc(N(CCOCCOCCOCCN)S(C)(=O)=O)c(C3CC3)cc12 [Compound 04-10, 6-(N-(2-(2-(2-(2-Aminoethoxy)-ethoxy)-ethoxy)-ethyl)-methylsulfonamido)-5-cyclopropyl-2-(4-fluorophenyl)-N-methylbenzofuran-3-carboxamide]",> 1 µM
4,"CNC(=O)c1c(-c2ccc(F)cc2)oc2cc(N(CCOCCCCCOCC(=O)OC(C)(C)C)S(C)(=O)=O)c(C3CC3)cc12 [Compound 27-8A, [5-(2-{[5-Cyclopropyl-2-(4-fluoro-phenyl)-3-methylcarbamoyl-benzofuran-6-yl]-methanesulfonyl-amino}-ethoxy)-pentyloxy]-acetic Acid Tert-butyl Ester]",> 1 µM
5,"CNC(=O)c1c(-c2ccc(F)cc2)oc2cc(N(CCOCCOCCOCCCCc3cccc(C(=O)CC(=O)C(=O)O)c3)S(C)(=O)=O)c(C3CC3)cc12 [Compound 30-16, 4-[3-(4-{2-[2-(2-{[5-Cyclopropyl-2-(4-fluoro-phenyl)-3-methylcarbamoyl-benzofuran-6-yl]-methanesulfonyl-amino}-ethoxy)-ethoxy]-ethoxy}-butyl)-phenyl]-2,4-dioxo-butyric acid]",> 1 µM
6,"CNC(=O)c1c(-c2ccc(F)cc2)oc2cc(N(CCCOCCCc3ccc(C(=O)O)cc3)S(C)(=O)=O)c(C3CC3)cc12 [Compound 13-8B, 4-[3-(3-{[5-Cyclopropyl-2-(4-fluoro-phenyl)-3-methylcarbamoyl-benzofuran-6-yl]-methanesulfonyl-amino}-propoxy)-propyl]-benzoic Acid]",0.1 to 1 µM
7,"CNC(=O)c1c(-c2ccc(F)cc2)oc2cc(N(CC(=O)NCC(=O)NCCCC(C)C(=O)O)S(C)(=O)=O)c(C3CC3)cc12 (centres unmarked) [Compound 10-4B, 5-[2-(2-{[5-Cyclopropyl-2-(4-fluoro-phenyl)-3-methylcarbamoyl-benzofuran-6-yl]-methanesulfonyl-amino}-acetylamino)-acetylamino]-2-methyl-pentanoic Acid]",> 1 µM
8,"CNC(=O)c1c(-c2ccc(F)cc2)oc2cc(N(CCOCCOCc3ccc(C(=O)O)c(C)c3)S(C)(=O)=O)c(C3CC3)cc12 [Compound 18-10A, 4-[2-(2-{[5-Cyclopropyl-2-(4-fluoro-phenyl)-3-methylcarbamoyl-benzofuran-6-yl]-methanesulfonyl-amino}-ethoxy)-ethoxymethyl]-2-methyl-benzoic Acid]",0.1 to 1 µM
9,"CNC(=O)c1c(-c2ccc(F)cc2)oc2cc(N(CCOCCOCCOCCCc3cccc(C(=O)CC(=O)C(=O)O)c3)S(C)(=O)=O)c(C3CC3)cc12 [Compound 30-10, 4-[3-(3-{2-[2-(2-{[5-Cyclopropyl-2-(4-fluoro-phenyl)-3-methylcarbamoyl-benzofuran-6-yl]-methanesulfonyl-amino}-ethoxy)-ethoxy]-ethoxy}-propyl)-phenyl]-2,4-dioxo-butyric acid]",> 1 µM
10,"CNC(=O)c1c(-c2ccc(F)cc2)oc2cc(N(CCOCCOCCCc3ccc(C(=O)O)cc3)S(C)(=O)=O)c(C3CC3)cc12 [Compound 12-7C, 4-{3-[2-(2-{[5-Cyclopropyl-2-(4-fluoro-phenyl)-3-methylcarbamoyl-benzofuran-6-yl]-methanesulfonyl-amino}-ethoxy)-ethoxy]-propyl}-benzoic Acid]",0.1 to 1 µM
11,"CNC(=O)c1c(-c2ccc(F)cc2)oc2cc(N(CCOCCOCCOCc3cccc(C(=O)/C=C(\O)C(=O)O)c3)S(C)(=O)=O)c(C3CC3)cc12 [Compound 02-10B, 4-(3-{2-[2-(2-{[5-Cyclopropyl-2-(4-fluoro-phenyl)-3-methylcarbamoyl-benzofuran-6-yl]-methanesulfonyl-amino}-ethoxy)-ethoxy]-ethoxymethyl}-phenyl)-2-hydroxy-4-oxo-but-2-enoic Acid]",> 1 µM
12,"CNC(=O)c1c(-c2ccc(F)cc2)oc2cc(N(CCOCCOCCOC(C)(C)C(=O)OC(C)(C)C)S(C)(=O)=O)c(C3CC3)cc12 [Compound 26-6B, 2-{2-[2-(2-{[5-Cyclopropyl-2-(4-fluoro-phenyl)-3-methylcarbamoyl-benzofuran-6-yl]-methanesulfonyl-amino}-ethoxy)-ethoxy]-ethoxy}-2-methyl-propionic Acid Tert-butyl Ester]",> 1 µM
13,"CNC(=O)c1c(-c2ccc(F)cc2)oc2cc(N(CCOCCCc3cccc(C(C)=O)c3)S(C)(=O)=O)c(C3CC3)cc12 [Compound 30-5, 6-({2-[3-(3-Acetyl-phenyl)-propoxy]-ethyl}-methanesulfonyl-amino)-5-cyclopropyl-2-(4-fluoro-phenyl)-benzofuran-3-carboxylic acid methylamide]",> 1 µM
14,"CNC(=O)c1c(-c2ccc(F)cc2)oc2cc(N(CCOCCOCCOCc3cccc(C(=O)O)c3)S(C)(=O)=O)c(C3CC3)cc12 [Compound 06-7F, 3-{2-[2-(2-{[5-Cyclopropyl-2-(4-fluoro-phenyl)-3-methylcarbamoyl-benzofuran-6-yl]-methanesulfonyl-amino}-ethoxy)-ethoxy]-ethoxymethyl}-benzoic Acid]",< 0.1 µM
15,"CCOC(=O)c1ccc(COCCOCCN(c2cc3oc(-c4ccc(F)cc4)c(C(=O)NC)c3cc2C2CC2)S(C)(=O)=O)cc1 [Compound 06-8B1, 4-[2-(2-{[5-Cyclopropyl-2-(4-fluoro-phenyl)-3-methylcarbamoyl-benzofuran-6-yl]-methanesulfonyl-amino}-ethoxy)-ethoxymethyl]-benzoic Acid Ethyl Ester]",> 1 µM
16,"CCCCOC(=O)c1ccc(COCCOCCN(c2cc3oc(-c4ccc(F)cc4)c(C(=O)NC)c3cc2C2CC2)S(C)(=O)=O)cc1 [Compound 06-8B3, 4-[2-(2-{[5-Cyclopropyl-2-(4-fluoro-phenyl)-3-methylcarbamoyl-benzofuran-6-yl]-methanesulfonyl-amino}-ethoxy)-ethoxymethyl]-benzoic Acid Butyl Ester]",0.1 to 1 µM
17,CNC(=O)c1c(-c2ccc(F)cc2)oc2cc(N(CCOCCOCc3ccc(Cl)nc3)S(C)(=O)=O)c(C3CC3)cc12 [Compound 19-8B],< 0.1 µM
18,"CNC(=O)c1c(-c2ccc(F)cc2)oc2cc(N(CCOCCCCc3ccc(C(=O)OC)cc3)S(C)(=O)=O)c(C3CC3)cc12 [Compound 13-7A, 4-[4-(2-{[5-Cyclopropyl-2-(4-fluoro-phenyl)-3-methylcarbamoyl-benzofuran-6-yl]-methanesulfonyl-amino}-ethoxy)-butyl]-benzoic Acid Methyl Ester]",0.1 to 1 µM
19,"CNC(=O)c1c(-c2ccc(F)cc2)oc2cc(N(CCOCCOCc3ccnc(Cl)c3)S(C)(=O)=O)c(C3CC3)cc12 [Compound 19-8A, 6-({2-[2-(2-Chloro-pyridin-4-ylmethoxy)-ethoxy]-ethyl}-methanesulfonyl-amino)-5-cyclopropyl-2-(4-fluoro-phenyl)-benzofuran-3-carboxylic Acid Methylamide]",< 0.1 µM
20,"CNC(=O)c1c(-c2ccc(F)cc2)oc2cc(N(CCOCCOCc3ccccc3C(=O)OC)S(C)(=O)=O)c(C3CC3)cc12 [Compound 06-6A, 2-[2-(2-{[5-Cyclopropyl-2-(4-fluoro-phenyl)-3-methylcarbamoyl-benzofuran-6-yl]-methanesulfonyl-amino}-ethoxy)-ethoxymethyl]-benzoic Acid Methyl Ester]",0.1 to 1 µM
21,"CNC(=O)c1c(-c2ccc(F)cc2)oc2cc(N(CCOCCCCOc3cccc(C(=O)CC(=O)C(=O)O)c3)S(C)(=O)=O)c(C3CC3)cc12 [Compound 30-9, 4-{3-[4-(2-{[5-Cyclopropyl-2-(4-fluoro-phenyl)-3-methylcarbamoyl-benzofuran-6-yl]-methanesulfonyl-amino}-ethoxy)-butoxy]-phenyl}-2,4-dioxo-butyric acid]",> 1 µM
22,"CCCCOCCOCCOCCN(c1cc2oc(-c3ccc(F)cc3)c(C(=O)NC)c2cc1C1CC1)S(C)(=O)=O [Compound 05-4B, 6-({2-[2-(2-Butoxy-ethoxy)-ethoxy]-ethyl}-methanesulfonyl-amino)-5-cyclopropyl-2-(4-fluoro-phenyl)-benzofuran-3-carboxylic Acid Methylamide]",> 1 µM
23,"CNC(=O)c1c(-c2ccc(F)cc2)oc2cc(N(CCOCCOCCOCc3ccc(C(=O)OC)cc3)S(C)(=O)=O)c(C3CC3)cc12 [Compound 06-6E, 4-{2-[2-(2-{[5-Cyclopropyl-2-(4-fluoro-phenyl)-3-methylcarbamoyl-benzofuran-6-yl]-methanesulfonyl-amino}-ethoxy)-ethoxy]-ethoxymethyl}-benzoic acid methyl ester]",0.1 to 1 µM

# From patent US10947210B2 (priority 2015, dated 2021)
